Measurements as given in patent US20250049931A1, “POLYSARCOSINE-VITAMIN E DERIVATIVES” (POLYPEPTIDE THERAPEUTIC SOLUTIONS, S.L., priority 2021, published 2025).

Assays:
[1] = Skin permeation studies by Franz diffusion cells; type: in vitro ADME, human; conditions: TPGS-Dil and TPSS-Dil micelles 10 mg/mL, 8 h
Method: Breast skin samples were obtained from healthy women undergoing plastic surgery after written informed consent (kindly donated by Hospital la Fe, Valencia, Spain). Immediately after excision, the subcutaneous fatty tissue was carefully removed using a scalpel. The skin was cut into 4 cm^2 pieces, wrapped in aluminum foil and stored at −20° C. until use. To reduce inter-individual variability and afford a better comparison of results, skin from only one donor was used in all experiments. Before starting each experiment, the skin was allowed to equilibrate at room temperature (r.t.).
Permeation studies employed the modified Franz diffusion cells (Logan Instruments Corp., EE. UU) with a diffusional area of 0.95 cm^2. […]
Finally, the samples were placed in the optimum cutting temperature (OCT) inclusion medium, and slides of 5 μm were generated via cryostat (version CM1850 UV, Leica, Germany) and samples were analyzed by confocal microscopy.
Images were captured with an inverted DM IRE2 microscope equipped with a λ-blue 40× oil immersion objective and handled with a TCS SP2 system, equipped with an Acoustic Optical Beam Splitter (AOBS). […] Control tissue that follows the same incubation time with MilliQ water was also analyzed to establish the autofluorescence. Dil intensity was quantified five times per sample using Image J software.

HaCaT cells = experiment: Cell viability by MTS assay, HaCaT; type: cell-based, human; conditions: 72 h, 0.1 to 2.57 μg/mL equivalents of Vitamin E
human fibroblasts = experiment: Cell viability by MTS assay, fibroblasts; type: cell-based; conditions: 72 h, 0.1 to 2.57 μg/mL equivalents of Vitamin E

CCCCCCCCCCCCCCCCCCN1C(=CC=CC2=[N+](CCCCCCCCCCCCCCCCCC)c3ccccc3C2(C)C)C(C)(C)c2ccccc21.[O-][Cl+3]([O-])([O-])[O-] [Dil, 1,1′-dioctadecyl-3,3,3′,3′-tetramethylindocarbocyanine perchlorate]
Dil found in the receptor chamber [1]: any Dil was found in the receptor chamber

Cc1c(C)c2c(c(C)c1O)CC[C@@](C)(CCC[C@H](C)CCC[C@H](C)CCCC(C)C)O2 [Vitamin E, α-tocopherol]
cytotoxic effect (cell viability by MTS) (HaCaT cells): no cytotoxic effect | cytotoxic effect (cell viability by MTS) (human fibroblasts): no cytotoxic effect
